Experiments:
Experiment in all cases: Pre-emergent herbicidal activity (Table A)
Type in all cases: in vivo
Rhizome Johnsongrass = conditions: Sorghum halepense, pre-emergence, Rhjg, 11.2 kg/ha, 10-14 days, read-out: herbicidal rating (% inhibition)
Outline: (§1)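 Seeds or vegetative propagules were set on topsoil compacted to 0.95 to 1.27 cm below the pan rim, then covered with soil thoroughly mixed with a known amount of test compound in acetone or water carrier. Ratings follow a scale of percent inhibition per species.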

Quackgrass = conditions: pre-emergence, Rhqg, 11.2 kg/ha, 10-14 days, read-out: herbicidal rating (% inhibition)
Outline: as §1

Cocklebur = conditions: Xanthium strumarium, pre-emergence, Cobu, 11.2 kg/ha, 10-14 days, read-out: herbicidal rating (% inhibition)
Outline: as §1

Yellow Nutsedge = conditions: Cyperus, pre-emergence, Yens, 11.2 kg/ha, 10-14 days, read-out: herbicidal rating (% inhibition)
Outline: as §1

Downy Brome = conditions: Bromus tectorum, pre-emergence, Dobr, 11.2 kg/ha, 10-14 days, read-out: herbicidal rating (% inhibition)
Outline: as §1

Canada thistle = conditions: Cirsium arvense, pre-emergence, Cath, 11.2 kg/ha, 10-14 days, read-out: herbicidal rating (% inhibition)
Outline: as §1

Barnyardgrass = conditions: Echinochloa crus-galli, pre-emergence, Bygr, 11.2 kg/ha, 10-14 days, read-out: herbicidal rating (% inhibition)
Outline: as §1

Pennsylvania Smartweed = conditions: pre-emergence, Pesw, 11.2 kg/ha, 10-14 days, read-out: herbicidal rating (% inhibition)
Outline: as §1

Morningglory = conditions: Ipomoea, pre-emergence, Mogl, 11.2 kg/ha, 10-14 days, read-out: herbicidal rating (% inhibition)
Outline: as §1

Velvetleaf = conditions: Abutilon theophrasti, pre-emergence, Vele, 11.2 kg/ha, 10-14 days, read-out: herbicidal rating (% inhibition)
Outline: as §1

Common Lambsquarters = conditions: Chenopodium album, pre-emergence, Colq, 11.2 kg/ha, 10-14 days, read-out: herbicidal rating (% inhibition)
Outline: as §1

SMILES | inhibition at 11200 g/ha (Rhizome Johnsongrass) | inhibition at 11200 g/ha (Quackgrass) | inhibition at 11200 g/ha (Cocklebur) | inhibition at 11200 g/ha (Yellow Nutsedge) | inhibition at 11200 g/ha (Downy Brome) | inhibition at 11200 g/ha (Canada thistle) | inhibition at 11200 g/ha (Barnyardgrass) | inhibition at 11200 g/ha (Pennsylvania Smartweed) | inhibition at 11200 g/ha (Morningglory) | inhibition at 11200 g/ha (Velvetleaf) | inhibition at 11200 g/ha (Common Lambsquarters)
COC(=O)c1c(OC)nc(C(F)(F)F)c(C(=O)N2CCSCC2)c1CC(C)C [Compound 70, 3-pyridinecarboxylic acid, 2-methoxy-4-(2-methylpropyl)-5-(4-thiomorpholinylcarbonyl)-6-(trifluoromethyl)-, methyl ester] | 0 to 24% | 50 to 74% | 0 to 24% | 25 to 49% | 50 to 74% | 50 to 74% | 75 to 100% | 0 to 24% | 50 to 74% | 0 to 24% | 75 to 100%
COC(=O)c1c(OC)nc(C(F)(F)F)c(C(=O)N2CCSC2)c1CC(C)C [Compound 71, 3-pyridinecarboxylic acid, 2-methoxy-4-(2-methylpropyl)-5-(3-thiazolidinylcarbonyl)-6-(trifluoromethyl)-, methyl ester] | 0 to 24% | 50 to 74% | 0 to 24% | 0 to 24% | 75 to 100% | 25 to 49% | 75 to 100% | 50 to 74% | 50 to 74% | 25 to 49% | 75 to 100%
COC(=O)c1c(OC)nc(C(F)(F)F)c(C(=O)N2CC2C)c1CC(C)C (stereo not drawn) [Compound 72] | 0 to 24% | 0 to 24% | 0 to 24% | 0 to 24% | 75 to 100% | 0 to 24% | 75 to 100% | 25 to 49% | 25 to 49% | 25 to 49% | 75 to 100%
COC(=O)c1c(OC)nc(C(F)(F)F)c(C(=O)N2CCCCCC2)c1CC(C)C [Compound 73, 3-pyridinecarboxylic acid, 5-[(hexahydro-1H-azepin-1-yl)carbonyl]-2-methoxy-4-(2-methylpropyl)-6-(trifluoromethyl)-, methyl ester] | 75 to 100% | 75 to 100% | 0 to 24% | 0 to 24% | 75 to 100% | 75 to 100% | 75 to 100% | 75 to 100% | 50 to 74% | 25 to 49% | 75 to 100%
COC(=O)c1c(OC)nc(C(F)(F)F)c(C2=NC(C)CS2)c1CC(C)C (stereo not drawn) [Compound 74, 3-pyridinecarboxylic acid, 5-(4,5-dihydro-4-methy1-2-thiazolyl)-2-methoxy-4-(2-methylpropyl)-6-(trifluoromethyl)-, methyl ester] | 75 to 100% | 75 to 100% | 75 to 100% | 25 to 49% | 75 to 100% | 75 to 100% | 75 to 100% | 75 to 100% | 75 to 100% | 75 to 100% | 75 to 100%
COC(=O)c1c(OC)nc(C(F)(F)F)c(C2=NC(C)(C)CS2)c1CC(C)C [Compound 75, 3-pyridinecarboxylic acid, 5-(4,5-dihydro-4,4-dimethy1-2-thiazolyl)-2-methoxy-4-(2-methylpropyl)-6-(trifluoromethyl)-, methyl ester] | 25 to 49% | 75 to 100% | 50 to 74% | 75 to 100% | 75 to 100% | 75 to 100% | 75 to 100% | 75 to 100% | 75 to 100% | 75 to 100% | 75 to 100%
